Source: paper PMC6720511, “Synthesis and biological evaluation of novel N-(piperazin-1-yl)alkyl-1H-dibenzo[a,c]carbazole derivatives of dehydroabietic acid as potential MEK inhibitors” (Journal of Enzyme Inhibition and Medicinal Chemistry, 2019)

Key:
[1] = system: normal hepatocyte cell line (QSG-7701); test: MTT cytotoxic assay on normal hepatocytes; format: cell-based, human; conditions: Homo sapiens, QSG7701, 48 h, mean value ± SD
Summary of the method: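 Cells seeded at 2 × 10^5 cells/mL in DMEM + 10% FBS attached for 24 h, then were exposed to compounds for 48 h at 37 °C. MTT (2.5 mg/mL solution) was added for 4 h; DMSO-dissolved formazan was read at 570 nm. Normal QSG-7701 hepatocytes were tested alongside; doxorubicin was positive control.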

[2] = molecular target: T1, MEK1 (Homo sapiens, UniProt Q02750); test: In vitro MEK1 inhibition assay (ADP-Glo kinase assay); format: biochemical; conditions: recombinant GST-MEK1, GST-ERK2, 10 µM ATP, mean value ± SD; read-out: MEK1 inhibitory activity IC50 value
T1 construct: purchased Carna Biosciences, Japan
T1 sequence (Q02750 whole entry): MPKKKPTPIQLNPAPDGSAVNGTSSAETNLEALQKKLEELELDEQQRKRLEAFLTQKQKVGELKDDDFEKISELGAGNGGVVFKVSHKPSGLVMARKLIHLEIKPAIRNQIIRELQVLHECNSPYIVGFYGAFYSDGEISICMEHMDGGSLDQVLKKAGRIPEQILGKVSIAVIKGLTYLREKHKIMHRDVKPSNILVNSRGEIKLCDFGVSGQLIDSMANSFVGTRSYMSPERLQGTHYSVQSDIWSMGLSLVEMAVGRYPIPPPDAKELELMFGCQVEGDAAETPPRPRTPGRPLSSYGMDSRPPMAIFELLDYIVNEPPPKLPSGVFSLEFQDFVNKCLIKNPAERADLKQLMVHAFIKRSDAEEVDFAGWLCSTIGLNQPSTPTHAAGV
Experimental: An in vitro kinase assay of MEK1 was performed using ADP-Glo kinase assay (Promega, Madison, WI, USA) according to the manufacturer’s protocol. […] Reactions were stopped by adding 5 µL of ADP-Glo reagent to each well. After incubating at 22 °C for 40 min, 10 µL of the kinase detection reagent was added and the plates were incubated for another 30 min at 22 °C in the dark. The reaction mixture was analysed by EnSpire (PerkinElmer, Waltham, MA, USA). U0126 was used as the positive control for MEK1 inhibition.

[3] = system: pERK1/2; test: Western blot of ERK and pERK in HepG2 cells; format: cell-based, human; conditions: 48 h
Experimental: HepG2 cells were seeded at a density of 5 × 10^6 cells per well and attached for 8 h, and then treated with different concentrations of compound 10g for 48 h. After the treatment, the cells were harvested and washed twice with PBS. The harvested cells were lysed with radio-immunoprecipitation assay (RIPA) lysis buffer (Beyotime Biotech., Nantong, China) with 1% cocktail (Sigma-Aldrich, USA). Whole-cell protein lysates were prepared and centrifuged at 12,000 rpm for 10 min at 4 °C. The total proteins were determined using Bradford reagent (Bio-Rad Laboratories, Inc., USA). Exactly 40 µg of protein per lane was separated through sodium dodecyl sulfate-polyacrylamide gel electrophoresis and then transferred onto a polyvinylidene difluoride membrane (Millipore, Bedford, MA, USA). The membranes were incubated with each antibody and detected through immunoblot analysis. All of the antibodies were purchased from Cell signaling Technology, Inc. (Boston, MA, USA) and diluted in accordance with the manufacturer’s instruction. Proteins were visualized using a C-Digit® imaging system (LI-COR Biosciences, Lincoln, NE, USA).

[4] = system: HepG2 cells; test: Annexin V-FITC/PI dual staining assay; format: cell-based, human; conditions: HepG2, 2 µM (as printed in text), 48 h
Experimental: The extent of apoptosis was quantitatively measured using Annexin V-FITC/PI dual staining assay. HepG2 cells were seeded into a six-well plate at 5 × 10^5 cells per well in 10% foetal calf serum (FBS)-DMEM into six-well plates and treated with different concentrations of the indicated compound 10g for 48 h. The cells were detached with 0.25% trypsin, washed with ice-cold PBS for twice and then resuspended in 1 × Binding buffer (0.1 M Hepes/NaOH (pH 7.4), 1.4 M NaCl, 25 mM CaCl2). The cells were stained with 5 µL of Annexin V-FITC and 5 µL of PI (propidium iodide) to each tube. The cells were gently vortexed and incubated in the dark at room temperature for 15 min and then keep them at 4 °C. The samples were analysed by a flow cytometer (Becton-Dickinson FACSCalibur, NJ, USA) and data were analysed using the FlowJo software (Becton-Dickinson & Co, Totowa, NJ, USA).

[5] = Cell death inhibition assay; format: cell-based, human; conditions: human, HepG2 cells, 10g alone, 10 µM, read-out: relative cell viability of HepG2 cells
Experimental: Figure 6. Compound 10g induced oncosis and apoptosis of HepG2 cells. (a) PD150606 and Z-VAD-FMK partially reversed compound 10g-induced cell death. HepG2 cells were incubated with PD150606, Z-VAD-FMK or Necrostatin-1 at indicated concentration for 24 h alone or in combination with compound 10g at indicated concentration for 24 h. (b) Compound 10g induced the degradation of α-tubulin and β-actin, and activated oncosis marker calpain-1 autolysis from the 80 kDa event to 76 kDa event in western blot analysis. *, p < 0.01; **, p < 0.01; #, p < 0.01; &, p < 0.001. (c) Compound 10g induced the upregulation of apoptotic protein Bax, caspase-3, caspase-9 and plasmic cytochrome c levels, and the downregulation of antiapoptotic protein Bcl-2 level. *, p < 0.001; **, p < 0.01; #, p < 0.01; and p < 0.01.

CCOc1ccc2c(c1)c1c(n2CCN2CCNCC2)-c2cc(C(C)C)ccc2C2(C)CCCC(C)(C(=O)OC)C12 (centres unmarked) [Compound 10g, 2,3,4,4a,9,13c-Hexahydro-12-ethoxy-7-isopropyl-1,4a-dimethyl-9–(2-(piperazin-1-yl)ethyl)-1H-dibenzo[a,c]carbazole-1-carboxylic acid methyl ester]
IC50 [1]: 12.5 ± 0.58 µM | IC50 [2]: 110 ± 20 nM | expression level of pERK1/2, % of the control group ([3]; 0.1 µM): 88.8% | expression level of pERK1/2, % of the control group ([3]; 0.5 µM): 43.8% | expression level of pERK1/2, % of the control group ([3]; 1.0 µM): 34.2% | expression levels of ERK1/2 (in words) ([3]; 0.1-1.0 µM): decreased slightly | percentage of early and late apoptotic cells [4]: 60.02% | viability at 24 h, 10 µM [5]: 1.22%
